Our source for the EC50 and IC50 values is publication PMC6218581, “Resurrecting the Regulatory Properties of the Ostreococcus tauri ADP-Glucose Pyrophosphorylase Large Subunit” (Frontiers in Plant Science, 2018).

Assay [1] has as its target T1, OtaS/OtaL ADP-Glc PPase (Ostreococcus tauri, UniProt A0A090M9E5+A0A096P9X2, A0A096P9X2:L24M/A0A090M9E5:K508R). The assay can be described thus: ADP-[…]Glc formation, activation curve, Hill fit. The format is biochemical. The arrangement: gene OT_ostta07g03070; heterotetramer alpha2beta2, co-expressed from pMAB5/OtaS and pMAB6/OtaL in E. coli AC70R1-504; DEAE and Resource PHE purification, no tag mentioned. Particulars: allosteric activator; 50 mM HEPPS pH 8.0, 10 mM MgCl2, 1 mM Glc1P, 2.5 mM ATP, 37°C, no Pi; read-out: A0.5.

In assay [2] the target is T2, StuSK441A/OtaL hybrid heterotetramer (Solanum tuberosum; Ostreococcus tauri, UniProt A0A096P9X2+P23509, A0A096P9X2:L24M/P23509:K511A).
T2 construct: hybrid heterotetramer: potato tuber small subunit K441A co-expressed with O. tauri large subunit in E. coli AC70R1-504; purified
T2 sequence (A0A096P9X2 entry or part of it L24M): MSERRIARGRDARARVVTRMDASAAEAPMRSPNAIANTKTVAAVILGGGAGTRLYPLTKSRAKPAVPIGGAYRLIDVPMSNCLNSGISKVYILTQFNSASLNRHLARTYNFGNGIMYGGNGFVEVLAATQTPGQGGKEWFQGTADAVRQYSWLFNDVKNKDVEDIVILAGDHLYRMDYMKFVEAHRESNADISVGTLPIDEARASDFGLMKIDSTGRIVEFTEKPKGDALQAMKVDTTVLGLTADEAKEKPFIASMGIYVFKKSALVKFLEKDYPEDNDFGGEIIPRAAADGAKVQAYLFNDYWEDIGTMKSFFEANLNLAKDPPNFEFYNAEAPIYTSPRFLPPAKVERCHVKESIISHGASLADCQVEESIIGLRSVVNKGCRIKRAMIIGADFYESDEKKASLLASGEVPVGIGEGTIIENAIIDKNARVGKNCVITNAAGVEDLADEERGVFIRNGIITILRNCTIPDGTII
T2 sequence (P23509 73-521 K511A): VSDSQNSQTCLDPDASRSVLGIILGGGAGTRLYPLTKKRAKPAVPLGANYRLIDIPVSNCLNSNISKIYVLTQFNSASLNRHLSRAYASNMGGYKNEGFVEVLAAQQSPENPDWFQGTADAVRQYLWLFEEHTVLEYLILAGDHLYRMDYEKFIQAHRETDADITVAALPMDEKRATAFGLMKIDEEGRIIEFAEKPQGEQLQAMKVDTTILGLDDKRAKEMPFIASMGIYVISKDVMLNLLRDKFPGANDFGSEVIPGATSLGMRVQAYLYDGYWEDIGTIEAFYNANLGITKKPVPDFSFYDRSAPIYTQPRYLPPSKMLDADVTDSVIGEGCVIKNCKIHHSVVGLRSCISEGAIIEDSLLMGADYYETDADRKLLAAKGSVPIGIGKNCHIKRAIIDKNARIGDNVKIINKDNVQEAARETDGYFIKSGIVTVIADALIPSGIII
The assay can be described thus: ADP-[…]Glc formation, activation curve, Hill fit. The class given is biochemical. Particulars: read-out: A0.5; allosteric activator; 50 mM HEPPS pH 8.0, 10 mM MgCl2, 1 mM Glc1P, 2.5 mM ATP, 2 mM DTT, 37°C, no Pi.

In assay [3] the target is T3, OtaS/OtaL ADP-Glc PPase (Ostreococcus tauri, UniProt A0A090M9E5+A0A096P9X2, A0A096P9X2:L24M). The assay can be described thus: ADP-[…]Glc formation, activation curve, Hill fit. The class given is biochemical. The arrangement: gene OT_ostta07g03070; heterotetramer alpha2beta2, co-expressed from pMAB5/OtaS and pMAB6/OtaL in E. coli AC70R1-504; DEAE and Resource PHE purification, no tag mentioned. Particulars: allosteric activator; 50 mM HEPPS pH 8.0, 10 mM MgCl2, 1 mM Glc1P, 2.5 mM ATP, 37°C, no Pi; read-out: A0.5.
T3 sequence (A0A090M9E5 entry or part of it): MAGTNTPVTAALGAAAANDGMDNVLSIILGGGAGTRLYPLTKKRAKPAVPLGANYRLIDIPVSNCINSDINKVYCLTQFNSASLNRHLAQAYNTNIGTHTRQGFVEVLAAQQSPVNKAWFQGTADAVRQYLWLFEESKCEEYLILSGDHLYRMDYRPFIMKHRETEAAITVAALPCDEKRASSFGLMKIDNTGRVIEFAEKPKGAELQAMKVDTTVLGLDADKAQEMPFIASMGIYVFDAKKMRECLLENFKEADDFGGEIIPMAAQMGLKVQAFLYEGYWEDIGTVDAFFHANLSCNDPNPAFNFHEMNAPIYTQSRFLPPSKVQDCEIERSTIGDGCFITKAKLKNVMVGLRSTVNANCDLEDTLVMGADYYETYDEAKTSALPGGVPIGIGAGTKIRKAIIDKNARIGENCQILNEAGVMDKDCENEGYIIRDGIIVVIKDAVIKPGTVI
T3 sequence (A0A096P9X2 entry or part of it L24M): as the sequence (A0A096P9X2 entry or part of it L24M) above

Assay [4] has as its target T4, OtaS/OtaL ADP-Glc PPase (Ostreococcus tauri, UniProt A0A090M9E5+A0A096P9X2, A0A096P9X2:R476K/A0A090M9E5:K508R, form not given).
T4 construct: gene OT_ostta07g03070; heterotetramer alpha2beta2, co-expressed from pMAB5/OtaS and pMAB6/OtaL in E. coli AC70R1-504; DEAE and Resource PHE purification, no tag mentioned
The assay can be described thus: ADP-[…]Glc formation, activation curve, Hill fit. The format is biochemical. The note with it: allosteric activator; 50 mM HEPPS pH 8.0, 10 mM MgCl2, 1 mM Glc1P, 2.5 mM ATP, 37°C, no Pi; read-out: A0.5.

Assay [5] has as its target T5, OtaS/OtaL ADP-Glc PPase (Ostreococcus tauri, UniProt A0A090M9E5+A0A096P9X2, A0A096P9X2:R476K, form not given).
T5 construct: gene OT_ostta07g03070; heterotetramer alpha2beta2, co-expressed from pMAB5/OtaS and pMAB6/OtaL in E. coli AC70R1-504; DEAE and Resource PHE purification, no tag mentioned
The assay can be described thus: ADP-[…]Glc formation, activation curve, Hill fit. The format is biochemical. The note with it: allosteric activator; 50 mM HEPPS pH 8.0, 10 mM MgCl2, 1 mM Glc1P, 2.5 mM ATP, 37°C, no Pi; read-out: A0.5.

The target of assay [6] is T6, StuSK441A/OtaL hybrid heterotetramer (Solanum tuberosum; Ostreococcus tauri, UniProt A0A096P9X2+P23509, A0A096P9X2:R476K/P23509:K511A, form not given).
T6 construct: hybrid heterotetramer: potato tuber small subunit K441A co-expressed with O. tauri large subunit in E. coli AC70R1-504; purified
T6 sequence (P23509 73-521 K511A, form open): as the sequence (P23509 73-521 K511A) above
T6 sequence (A0A096P9X2 entry or part of it R476K, form open): as the sequence (A0A096P9X2 entry or part of it L24M) above, with M1L, R453K counted along it
The assay can be described thus: ADP-[…]Glc formation, activation curve, Hill fit. The note with it: read-out: A0.5; allosteric activator; 50 mM HEPPS pH 8.0, 10 mM MgCl2, 1 mM Glc1P, 2.5 mM ATP, 2 mM DTT, 37°C, no Pi. The format is biochemical.

Assay [7] has as its target T1, OtaS/OtaL ADP-Glc PPase. The arrangement: gene OT_ostta07g03070. Particulars: read-out: I0.5; allosteric inhibitor; 3PGA present at its A0.5 (1.6 mM); 50 mM HEPPS pH 8.0, 10 mM MgCl2, 1 mM Glc1P, 2.5 mM ATP, 37°C. An excerpt: (§1) ADP-Glc PPase activity, inhibition curve, Hill fit on OtaS/OtaL ADP-Glc PPase
Assay [8] deals with T3, OtaS/OtaL ADP-Glc PPase. The arrangement: gene OT_ostta07g03070. Particulars: read-out: I0.5; allosteric inhibitor; 3PGA present at its A0.5 (0.61 mM); 50 mM HEPPS pH 8.0, 10 mM MgCl2, 1 mM Glc1P, 2.5 mM ATP, 37°C.
Description: as §1

T1 sequence (A0A090M9E5 entry or part of it K508R): as the sequence (A0A090M9E5 entry or part of it) above, with K443R counted along it
T1 sequence (A0A096P9X2 entry or part of it L24M): as the sequence (A0A096P9X2 entry or part of it L24M) above
T5 sequence (A0A096P9X2 entry or part of it R476K, form open): as the sequence (A0A096P9X2 entry or part of it L24M) above, with M1L, R453K counted along it
T5 sequence (A0A090M9E5 entry or part of it, form open): as the sequence (A0A090M9E5 entry or part of it) above
T4 sequence (A0A096P9X2 entry or part of it R476K, form open): as the sequence (A0A096P9X2 entry or part of it L24M) above, with M1L, R453K counted along it
T4 sequence (A0A090M9E5 entry or part of it K508R, form open): as the sequence (A0A090M9E5 entry or part of it) above, with K443R counted along it

`O=C(O)[C@H](O)COP(=O)(O)O` [3PGA]: the EC50 in assay [1] is 1600 ± 600 µM; in assay [2], 1200 ± 100 µM; in assay [3], 610 ± 30 µM; in assay [4], 740 ± 80 µM; in assay [5], 190 ± 10 µM; in assay [6], 400 ± 20 µM.
Consider `O=P(O)(O)O` [Pi], for which the IC50 in assay [7] was determined as 1600 ± 200 µM; in assay [8], 179 ± 4 µM.
